The values that follow come from patent publication US12281118B2, “Nitrogen-containing fused heterocyclic SHP2 inhibitor compound, preparation method, and use” (SHANGHAI RINGENE BIOPHARMA CO., LTD., priority 2018, dated 2025).

Format in all cases: in vivo
The subject of data set [1] is MC38 colorectal cancer xenografts. The experiment in a line: Growth inhibition of MC38 colorectal cancer xenografts in C57BL-6 mice. Conditions: 1 mg/kg, orally, once daily. An excerpt: Experimental method: 1) Culturing MC38 cells in a culture medium containing 10% fetal bovine serum. […] 2) Subcutaneously inoculating […] tumor cells at the right back of a mouse, and resuspending the cells in PBS and matrigel (1:1); observing tumor growth regularly, and randomizing mice for administration based on tumor size and mouse body weight when tumors grow to a mean volume of ˜50 mm^3-60 mm^3. 3) Defining the day of tumor cell inoculation as Day 0. Prior to the start of dosing, weighing all animals and measuring the tumor volume with a vernier caliper. 3) Administering orally compound of examples (prepared with water for injection containing 1% Tween80 to a desired concentration for use) at a given dose, intraperitoneally injecting an anti-PD-L1 antibody twice a week, for two consecutive weeks, and giving an equal amount of solvent animals in a solvent control group. Measuring diameters of the xenograft twice a week throughout the experiment, and weighing the mice were at the same time.
The calculation formula of tumor volume (TV) is: TV=½×a×b^2, wherein a and b represent length and width, respectively. The relative tumor volume (RTV) is calculated based on the measured results using the formula: RTV=Vt/V0, wherein V0 is the tumor volume measured at the time of dosing in separate cages (i.e., Day 0) and Vt is the tumor volume at each measurement. […]

For data set [2], the system named is NCI-H358 tumor cell xenograft. As to the kind of experiment: Growth inhibition of xenograft in nude mice. Particulars: orally, once daily, for 21 consecutive days. From the text:
(§1) Experimental method: 1) Culturing MV 4-11/KYSE520/NCI-H358 cells in a culture medium containing 10% fetal bovine serum. Harvesting tumor cells at an exponential growth phase, and resuspending in PBS to suitable concentrations for subcutaneous tumor inoculation in nude mice. 2) Subcutaneously inoculating 2-8×10^7 tumor cells at the right back of a mouse, and resuspending the cells in PBS and matrigel (1:1); observing tumor growth regularly, and randomizing mice for administration based on tumor size and mouse body weight when tumors grow to a mean volume of ˜120 mm^3-[…]. 3) Defining the day of tumor cell inoculation as Day 0. Prior to the start of dosing, weighing all animals and measuring the tumor volume with a vernier caliper. 3) Administering orally compound of examples (prepared with water for injection containing 1% Tween80 to a desired concentration for use) at a given dose for three consecutive weeks, and giving an equal amount of solvent animals in a solvent control group. Measuring diameters of the xenograft twice a week throughout the experiment, and weighing the mice were at the same time.
The calculation formula of tumor volume (TV) is: TV=½×a×b^2, wherein a and b represent length and width, respectively. The relative tumor volume (RTV) is calculated based on the measured results using the formula: RTV=Vt/V0, wherein V0 is the tumor volume measured at the time of dosing in separate cages (i.e., Day 0) and Vt is the tumor volume at each measurement. The anti-tumor activity is evaluated by the following measures: 1) relative tumor proliferation rate T/C (%), which is calculated by the following formula: T/C (%)=(TRTV/CRTV)×100%, wherein TRTV: RTV of ae treatment group; CRTV: RTV of a negative control group; 2) inhibition rate of tumor volume growth GI %, which is calculated by the following formula: GI %=[1−(TVt−TV0)/(CVt−[…])]×100%, wherein TVt is the tumor volume at each measurement in the treatment group; TV0 is the tumor volume obtained at the time of dosing in separate cages in the treatment group; CVt is the tumor volume at each measurement in the control group; CV0 is the tumor volume obtained at the time of dosing in separate cages in the control group (specific data are shown in Table 4).

In data set [3] the test system is MV 4-11/KYSE520/NCI-H358 tumor cell xenografts. As to the kind of experiment: Xenograft study in nude mice: tolerance and westernblot assay of tumor tissues.
Excerpt: as §1

One may read the T/C as the ratio of treated to control. In the case of `Cc1nc(N2CCC3(CC2)Cc2ccccc2[C@H]3N)n2ccnc2c1Sc1ccnc(N)c1Cl` [Example 1, (S)-1′-(8-((2-amino-3-chloropyridin-4-yl)thio)-7-methylimidazo [1,2-c]pyrimidin-5-yl)-1,3-dihydrospiro [indene-2,4′-piperidine]-1-amine], the T/C is 60% in data set [1], 39% in data set [2] (0.8 mg/kg) and 13% in data set [2] (2.5 mg/kg). Besides, the “inhibition of the signaling pathway in tumor tissues (westernblot)” value in data set [3] (24 hours after the last dosing) is “can still inhibit the signaling pathway in tumor tissues continuously 24 hours after the last dosing”. In data set [3] (nude mice with xenografts, oral dosing for three weeks), the “tolerance of the experimental animals” value is “well tolerated”.
